In US20150245613A1 (priority 2012, published 2015):
Read-outs that look alike come from different tables or passages of the source.

Experiments:
[1] = tested on: wheat brown rust; assay: Test Example 5: controlling effect on wheat brown rust, field test (cultivar NORIN No. 61), Colby; format: in vivo, Puccinia recondita; conditions: 20 days after spray
Text: A (theoretical) preventive value obtained in a case where the chemical suspension is sprayed=A1+((100−A1)×A2)/100
where A1 and A2 represent (i) the preventive value obtained in a case where the compound I-1 is sprayed and (ii) the preventive value obtained in a case where fluxapyroxad is sprayed.
Wheat seeds (cultivar: NORIN No. 61) were sown in a field in autumn of one (1) year earlier than a year when chemicals were sprayed, and the chemicals were sprayed over wheat plants at the flowering stage of the wheat plants. […] Specifically, the wheat seeds were sown in two rows with 30 cm inter-row spacing in the field in the autumn. (i) Chemical suspensions each of which contained the compound I-1 and Fluxapyroxad, (ii) a chemical suspension containing the compound I-1 and (iii) chemical suspensions each of which contained Fluxapyroxad, were diluted with water so that each ingredient of the chemical suspensions was in a predetermined amount to be used. Each of the chemical suspensions was then sprayed over the wheat plants at the flowering stage in the year. After the spray of the chemical suspensions, a pot, in which diseased wheat plants with brown rust were planted, was put in each test plot between the two rows of the wheat plants so that the wheat plants were prompted to get infected with wheat brown rust. Each test was conducted in three test plots, each of which test plots is of 0.5 m×4 m (2 m^2). In 20 days after the spray of the chemical suspensions, the occurrence of wheat brown rust was investigated in 20 flag leaves which were selected at random from one of the three test plots. An index of the occurrence (index of disease severity of wheat brown rust) was then calculated. A theoretical preventive value (an expected preventive value) obtained in a case where the chemical suspension containing the compound I-1 and Fluxapyroxad is sprayed was calculated, by use of the above Colby's formula (see Test Example 1), on the basis of (i) a preventive value obtained in a case where only the compound I-1 is sprayed and (ii) a preventive value obtained in a case where only fluxapyroxad is sprayed.

[2] = tested on: wheat Fusarium head blight; format: in vivo, Fusarium graminearum; conditions: cut wheat ears, 5 days after inoculation
[3] = tested on: wheat Fusarium head blight; format: in vivo, Fusarium graminearum; conditions: cut wheat ears, 5 days after inoculation; remark: listed apart in the source

## C[C@]1(CCl)CC[C@@H](Cc2ccc(Cl)cc2)[C@]1(O)Cn1cncn1 (racemic) [Compound I-1, (1RS,2SR,5SR)-5-(4-chlorobenzyl)-2-chloromethyl-2-methyl-1-(1H-1,2,4-triazole-1-ylmethyl)cyclopentanol]
[1]; Compound I-1 7.5 g/ha, Fluxapyroxad 0 g/ha, from average disease occurrence area ratios of flag leaves
  Actual preventive value: 42.6
[1]; Compound I-1 7.5 g/ha, Fluxapyroxad 0 g/ha, from disease occurrence ratios of flag leaves
  Actual preventive value: 16.4
[2]; Compound I-1 5 g/ha, Fluxapyroxad 0 g/ha
  Actual preventive value: 13
[2]; Compound I-1 10 g/ha, Fluxapyroxad 0 g/ha
  Actual preventive value: 39
[2]; Compound I-1 20 g/ha, Fluxapyroxad 0 g/ha
  Actual preventive value: 61

## C[C@]1(CCl)CC[C@@H](Cc2ccc(F)cc2)[C@]1(O)Cn1cncn1 (racemic) [Compound I-2, (1RS,2SR,5SR)-2-chloromethyl-5-(4-fluorobenzyl)-2-methyl-1-(1H-1,2,4-triazole-1-ylmethy)cyclopentanol]
[3]; Compound I-2 5 g/ha, Fluxapyroxad 0 g/ha
  Actual preventive value: 34
[3]; Compound I-2 10 g/ha, Fluxapyroxad 0 g/ha
  Actual preventive value: 45
[3]; Compound I-2 15 g/ha, Fluxapyroxad 0 g/ha
  Actual preventive value: 62
[3]; Compound I-2 20 g/ha, Fluxapyroxad 0 g/ha
  Actual preventive value: 78

## Cn1cc(C(=O)Nc2ccccc2-c2cc(F)c(F)c(F)c2)c(C(F)F)n1 [Fluxapyroxad, 3-(difluoromethyl)-1-methyl-N-(3′,4′,5′-trifluorobiphenyl-2-yl)pyrazole-4-carboxamido]
[1]; Compound I-1 0 g/ha, Fluxapyroxad 7.5 g/ha, from average disease occurrence area ratios of flag leaves
  Actual preventive value: 29.3
[1]; Compound I-1 0 g/ha, Fluxapyroxad 7.5 g/ha, from disease occurrence ratios of flag leaves
  Actual preventive value: 6.8
[1]; Compound I-1 0 g/ha, Fluxapyroxad 30 g/ha, from average disease occurrence area ratios of flag leaves
  Actual preventive value: 80.6
[1]; Compound I-1 0 g/ha, Fluxapyroxad 30 g/ha, from disease occurrence ratios of flag leaves
  Actual preventive value: 64.4
[2]; Compound I-1 0 g/ha, Fluxapyroxad 10 g/ha
  Actual preventive value: 3
[2]; Compound I-1 0 g/ha, Fluxapyroxad 20 g/ha
  Actual preventive value: 0
[2]; Compound I-1 0 g/ha, Fluxapyroxad 40 g/ha
  Actual preventive value: 4
[3]; Compound I-2 0 g/ha, Fluxapyroxad 10 g/ha
  Actual preventive value: 8
[3]; Compound I-2 0 g/ha, Fluxapyroxad 20 g/ha
  Actual preventive value: 16
[3]; Compound I-2 0 g/ha, Fluxapyroxad 30 g/ha
  Actual preventive value: 14
[3]; Compound I-2 0 g/ha, Fluxapyroxad 40 g/ha
  Actual preventive value: 9
